Results on 26 molecules are retold here after patent US20250288573A1 (H. LEE MOFFITT CANCER CENTER AND RESEARCH INSTITUTE, INC., priority 2018, published 2025).

Like-named read-outs stand apart in the source and are kept apart here.

For the experiment, the target named is T1, CRBN (Homo sapiens, UniProt Q96SW2).
T1 construct: endogenous in cells; host or cells: primary human T cells / CD8+ T cells from peripheral blood
As to the kind of experiment: Western blot for expression of CRBN relative to vinculin in human T cells (CRBN degradation). The format is cell-based. Particulars: for remaining activity at 10 µM / remaining activity at 0.01 µM: read-out: Relative Density of CRBN (% of DMSO); for remaining activity at 0.01 µM: 24 h; for CRBN Degradation ** (WB): grade (+) to (++++) or words, key not given. From the text: Bortez=bortezomib; MG132=proteasome inhibitor; MLN4924=NEDD8 inhibitor.
This assay is a standard Western blot assay for expression of CRBN relative to vinculin.
[…] 0.1 percent DMSO was used as a vehicle control.
In general terms: In western blotting, separated proteins are transferred to a membrane and probed.

T1 sequence (Q96SW2 whole entry): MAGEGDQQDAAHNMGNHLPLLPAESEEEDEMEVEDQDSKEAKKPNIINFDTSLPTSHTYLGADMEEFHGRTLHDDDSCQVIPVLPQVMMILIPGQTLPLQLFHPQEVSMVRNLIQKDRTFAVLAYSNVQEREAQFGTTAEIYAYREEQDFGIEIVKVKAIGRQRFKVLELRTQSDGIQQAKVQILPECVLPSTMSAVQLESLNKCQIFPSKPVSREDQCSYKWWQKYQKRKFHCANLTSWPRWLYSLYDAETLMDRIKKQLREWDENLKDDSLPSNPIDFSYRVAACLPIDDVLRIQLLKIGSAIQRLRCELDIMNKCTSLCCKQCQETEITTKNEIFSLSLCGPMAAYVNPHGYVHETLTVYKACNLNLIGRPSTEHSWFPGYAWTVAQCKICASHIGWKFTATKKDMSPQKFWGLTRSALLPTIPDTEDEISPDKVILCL

As for `O=C1C[C@H](NC(=O)c2cccc(NC(=O)CCCCCCC(=O)Nc3cccc(C(=O)N[C@H]4CC(=O)NC4=O)c3)c2)C(=O)N1` [XS01-066, N^1,N^8-Bis(3-(((S)-2,5-dioxopyrrolidin-3-yl)carbamoyl)phenyl)octanediamide], where the note is “10uM”, the remaining activity at 10 µM was found to be 157%.
Take `O=C1CCC(NC(=O)CCCCCCC(=O)NC2CCC(=O)NC2=O)C(=O)N1` (stereo not shown) [XS01-093, N^1,N^8-Bis(2,6-dioxopiperidin-3-yl)octanediamide]: the remaining activity at 10 µM (10uM) is 133%. Also, for the setting “10nM, human T cells, 24 hours”, the remaining activity at 0.01 µM was 116%.
Take `CN1C(=O)CCC(N2Cc3c(CCCOCCOCCCc4cccc5c4CN(C4CCC(=O)N(C)C4=O)C5=O)cccc3C2=O)C1=O` (stereo not shown) [SM3-104, 3,3′-(((Ethane-1,2-diylbis(oxy))bis(propane-3,1-diyl))bis(1-oxoisoindoline-4,2-diyl))bis(1-methylpiperidine-2,6-dione)]: the remaining activity at 0.01 µM (10nM, human T cells, 24 hours) worked out at 92.1%.
With `Cc1sc2c(c1C)C(c1ccc(Cl)cc1)=N[C@@H](CC(=O)NCCCCC(=O)Nc1cccc(C(=O)NC3CCC(=O)NC3=O)c1)c1nnc(C)n1-2` (stereo partly shown) [EC2-088], under “no concentration or unit printed”, the “CRBN Degradation (WB)/ IC50/DC50 Relative Density of CRBN (% of DMSO): value without qualifier” value was 43.73 ± 24.45 (1/25/19).
For `Cc1nc2cccc(NC(=O)CCCCCCCC(=O)Nc3cccc4nc(C)n(C5CCC(=O)NC5=O)c(=O)c34)c2c(=O)n1C1CCC(=O)NC1=O` (stereo not shown) [MA10-086, N1,N9-bis(3-(2,6-Dioxopiperidin-3-yl)-2-methyl-4-oxo-3,4-dihydroquinazolin-5-yl)nonanediamide], for the setting “10uM”, the remaining activity at 10 µM stood at 71%. Moreover, the remaining activity at 0.01 µM (10nM, human T cells, 24 hours) came to 138%.
`O=C1C[C@H](NC(=O)CCCCCCCCC(=O)N[C@H]2CC(=O)NC2=O)C(=O)N1` [XS01-081, N^1,N^10-Bis((S)-2,5-dioxopyrrolidin-3-yl)decanediamide]: the remaining activity at 10 µM (10uM) worked out at 35%.
Consider `O=C1CCC(N2Cc3c(C#CCCCC(=O)Nc4cccc5c4CN(C4CCC(=O)NC4=O)C5=O)cccc3C2=O)C(=O)N1` (stereo not shown) [EC2-108, N,6-bis(2-(2,6-Dioxopiperidin-3-yl)-1-oxoisoindolin-4-yl)hex-5-ynamide], for which the remaining activity at 10 µM (10uM) was 79.7%. The remaining activity at 0.01 µM (10nM, human T cells, 24 hours) was 85.6%.
Taken in the same sequence, the figures for `Cc1nc2c(NCc3ccc(CNc4cccc5c(=O)n(C6CCC(=O)NC6=O)c(C)nc45)cc3)cccc2c(=O)n1C1CCC(=O)NC1=O` (stereo not shown) [XS01-030, 3,3′-(((1,4-Phenylenebis(methylene))bis(azanediyl))bis(2-methyl-4-oxoquinazoline-8,3(4H)-diyl))bis(piperidine-2,6-dione)] were 93% and 12.1%.
The corresponding values for `O=C1CCC(N2Cc3c(NC(=O)CCCc4cn(CC(=O)Nc5cccc6c5CN(C5CCC(=O)NC5=O)C6=O)nn4)cccc3C2=O)C(=O)N1` (stereo not shown) [XS01-109, N-(2-(2,6-Dioxopiperidin-3-yl)-1-oxoisoindolin-4-yl)-4-(1-(2-((2-(2,6-dioxopiperidin-3-yl)-1-oxoisoindolin-4-yl)amino)-2-oxoethyl)-1H-1,2,3-triazol-4-yl)butanamide] are 132% and 213%.
With `Cc1nc2c(NC(=O)c3ccc(C(=O)Nc4cccc5c(=O)n(C6CCC(=O)NC6=O)c(C)nc45)cc3)cccc2c(=O)n1C1CCC(=O)NC1=O` (stereo not shown) [XS01-059], the “CRBN Degradation ** (WB)” value was “No Degradation”. The remaining activity at 10 µM (10uM) came to 356%. In addition, under “10nM, human T cells, 24 hours”, the remaining activity at 0.01 µM came to 69.2%.
Regarding `O=C1CCC(NC(=O)c2cccc(NC(=O)CCCCCCC(=O)Nc3cccc(C(=O)NC4CCC(=O)NC4=O)c3)c2)C(=O)N1` (stereo not shown) [XS01-050, N^1,N^8-Bis(3-((2,6-dioxopiperidin-3-yl)carbamoyl)phenyl)octanedimide], the remaining activity at 10 µM (10uM) came out at 20%. Besides, where the note is “10nM, human T cells, 24 hours”, the remaining activity at 0.01 µM worked out at 168%.
The corresponding values for `Cc1nc2cccc(NC(=O)CCc3cn(CC(=O)Nc4cccc5nc(C)n(C6CCC(=O)NC6=O)c(=O)c45)nn3)c2c(=O)n1C1CCC(=O)NC1=O` (stereo not shown) [XS01-132, N-(3-(2,6-dioxopiperidin-3-yl)-2-methyl-4-oxo-3,4-dihydroquinazolin-5-yl)-3-(1-(2-((3-(2,6-dioxopiperidin-3-yl)-2-methyl-4-oxo-3,4-dihydroquinazolin-5-yl)amino)-2-oxoethyl)-1H-1,2,3-triazol-4-yl)propanamide] are 98.3% and 199%.
The corresponding values for `O=C1CCC(N2Cc3c(CCCCCC(=O)Nc4cccc5c4CN(C4CCC(=O)NC4=O)C5=O)cccc3C2=O)C(=O)N1` (stereo not shown) [EC2-109, N,6-bis(2-(2,6-Dioxopiperidin-3-yl)-1-oxoisoindolin-4-yl)hexanamide] are 9.84% and 97.5%.
The corresponding values for `Cc1nc2cccc(NC(=O)CCCCC(=O)Nc3cccc4nc(C)n(C5CCC(=O)NC5=O)c(=O)c34)c2c(=O)n1C1CCC(=O)NC1=O` (stereo not shown) [MA10-088, N1,N6-bis(3-(2,6-Dioxopiperidin-3-yl)-2-methyl-4-oxo-3,4-dihydroquinazolin-5-yl)adipamide] are 58.1% and 135%.
Take `Cc1nc2cccc(NC(=O)CCCCCCC(=O)Nc3cccc4nc(C)n(C5CCC(=O)NC5=O)c(=O)c34)c2c(=O)n1C1CCC(=O)NC1=O` (stereo not shown) [MA10-077, N1,N8-bis(3-(2,6-dioxopiperidin-3-yl)-2-methyl-4-oxo-3,4-dihydroquinazolin-5-yl)octanediamide]: the remaining activity at 10 µM (10uM) was 74.3%. Further, the remaining activity at 0.01 µM (10nM, human T cells, 24 hours) amounted to 139%.
Regarding `O=C1CCC(N2Cc3c(CCCCCCCCCC(=O)Nc4cccc5c4CN(C4CCC(=O)NC4=O)C5=O)cccc3C2=O)C(=O)N1` (stereo not shown) [EC2-102, N,10-bis(2-(2,6-Dioxopiperidin-3-yl)-1-oxoisoindolin-4-yl)decanamide], the remaining activity at 10 µM (10uM) stood at 25.2%. Moreover, the remaining activity at 0.01 µM (10nM, human T cells, 24 hours) is 58.9%.
On to `O=C1CCC(N2Cc3ccc(NC(=O)CCCC(=O)Nc4ccc5c(c4)C(=O)N(C4CCC(=O)NC4=O)C5)cc3C2=O)C(=O)N1` (stereo not shown) [EC2-060, N^1,N^5-bis(2-(2,6-Dioxopiperidin-3-yl)-3-oxoisoindolin-5-yl)glutaramide], for which the “CRBN Degradation ** (WB)” value was “No degradation”. The remaining activity at 10 µM (10uM) came out at 40.3%. Moreover, the remaining activity at 0.01 µM (10nM, human T cells, 24 hours) was determined as 48.4%.
As to `O=C1CCC(N2Cc3ccc(NC(=O)CCCCC(=O)Nc4ccc5c(c4)C(=O)N(C4CCC(=O)NC4=O)C5)cc3C2=O)C(=O)N1` (stereo not shown) [EC2-066], under “10uM”, the remaining activity at 10 µM was found to be 189%.
Turning to `Cc1nc2cccc(NCc3ccc(CNc4cccc5nc(C)n(C6CCC(=O)NC6=O)c(=O)c45)cc3)c2c(=O)n1C1CCC(=O)NC1=O` (stereo not shown) [MA10-112], under “10uM”, the remaining activity at 10 µM is 21.4%. The remaining activity at 0.01 µM (10nM, human T cells, 24 hours) is 5.13%.
For `Cc1nc2cccc(CCCOCCOCCCc3cccc4nc(C)n(C5CCC(=O)NC5=O)c(=O)c34)c2c(=O)n1C1CCC(=O)NC1=O` (stereo not shown) [MA10-120, 3,3′-(((Ethane-1,2-diylbis(oxy))bis(propane-3,1-diyl))bis(2-methyl-4-oxoquinazoline-5,3(4H)-diyl))bis(piperidine-2,6-dione)], the remaining activity at 0.01 µM worked out at 56.7% and the remaining activity at 10 µM stood at 82.8%.
For `O=C1CCC(N2Cc3c(NC(=O)CCc4cn(CC(=O)Nc5cccc6c5C(=O)N(C5CCC(=O)NC5=O)C6=O)nn4)cccc3C2=O)C(=O)N1` (stereo not shown) [XS01-125, 3-(1-(2-((2-(2,6-Dioxopiperidin-3-yl)-1,3-dioxoisoindolin-4-yl)amino)-2-oxoethyl)-1H-1,2,3-triazol-4-yl)-N-(2-(2,6-dioxopiperidin-3-yl)-1-oxoisoindolin-4-yl)propanamide], the remaining activity at 10 µM (10uM) amounted to 153%. The remaining activity at 0.01 µM (10nM, human T cells, 24 hours) came out at 196%.
The corresponding values for `Cc1nc2cccc(NC(=O)CCCCCC(=O)Nc3cccc4nc(C)n(C5CCC(=O)NC5=O)c(=O)c34)c2c(=O)n1C1CCC(=O)NC1=O` (stereo not shown) [MA10-121, N1,N7-bis(3-(2,6-Dioxopiperidin-3-yl)-2-methyl-4-oxo-3,4-dihydroquinazolin-5-yl)heptanediamide] are 72.6% and 56.5%.
Taken in the same sequence, the figures for `O=C1CCC(N2Cc3c(C#CCCCCCCCC(=O)Nc4cccc5c4CN(C4CCC(=O)NC4=O)C5=O)cccc3C2=O)C(=O)N1` (stereo not shown) [EC2-100, N,10-bis(2-(2,6-Dioxopiperidin-3-yl)-1-oxoisoindolin-4-yl)dec-9-ynamide] were 32.2% and 55.5%.
The corresponding values for `Cc1nc2cccc(NC(=O)Cn3cc(CCC(=O)Nc4cccc5c4CN(C4CCC(=O)NC4=O)C5=O)nn3)c2c(=O)n1C1CCC(=O)NC1=O` (stereo not shown) [XS01-127, N-(2-(2,6-Dioxopiperidin-3-yl)-1-oxoisoindolin-4-yl)-3-(1-(2-((3-(2,6-dioxopiperidin-3-yl)-2-methyl-4-oxo-3,4-dihydroquinazolin-5-yl)amino)-2-oxoethyl)-1H-1,2,3-triazol-4-yl)propanamide] are 175% and 228%.
In the case of `O=C1CCC(N2Cc3ccc(NC(=O)CCCCCCC(=O)Nc4ccc5c(c4)C(=O)N(C4CCC(=O)NC4=O)C5)cc3C2=O)C(=O)N1` (stereo not shown) [EC2-063, N^1,N^8-bis(2-(2,6-Dioxopiperidin-3-yl)-3-oxoisoindolin-5-yl)octanediamide], under “10uM”, the remaining activity at 10 µM was found to be 13.5%. In addition, for the setting “10nM, human T cells, 24 hours”, the remaining activity at 0.01 µM was found to be 38.8%.
The corresponding values for `Cc1nc2cccc(NCc3cccc(CNc4cccc5nc(C)n(C6CCC(=O)NC6=O)c(=O)c45)n3)c2c(=O)n1C1CCC(=O)NC1=O` (stereo not shown) [MA10-126, 3,3′-(((Pyridine-2,6-diylbis(methylene))bis(azanediyl))bis(2-methyl-4-oxoquinazoline-5,3(4H)-diyl))bis(piperidine-2,6-dione)] are 61.1% and 54.2%.
